Results on 15 compounds are retold here after PubChem BioAssay AID2790 (The Scripps Research Institute Molecular Screening Center, 2010).

For orientation: IC50 means the concentration at which inhibition is half-maximal.

The source made the active and inactive calls.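 Rule for the calls: active = IC50 at or below 10 micromolar; inactive = IC50 above 10 micromolar.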 Bounds are passed on as bounds.

Chain of Bcl-2-like protein 1 (Homo sapiens) (Q07817 whole entry, looked up): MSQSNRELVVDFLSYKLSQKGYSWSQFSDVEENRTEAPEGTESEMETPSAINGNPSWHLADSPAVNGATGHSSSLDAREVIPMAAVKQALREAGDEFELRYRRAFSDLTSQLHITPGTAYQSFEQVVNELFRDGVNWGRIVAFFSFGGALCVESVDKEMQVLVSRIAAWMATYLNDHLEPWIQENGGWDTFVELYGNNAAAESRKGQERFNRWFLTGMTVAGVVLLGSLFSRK

The test addresses Bcl-2-like protein 1 (Homo sapiens) (UniProt Q07817). In words: Bcl-xL inhibitors, concentration-response – biochemical, fluorescence polarization, powder samples, counter-screen for MCL1-BIM inhibitor project, dose response (AID 2790). The settings on record: GST-BCL-XL / FITC-Bim BH3 fluorescence polarization.
Consider `c1coc(-c2nc(-c3ccco3)c(-c3ccco3)nc2-c2ccco2)c1`, for which the IC50 is > 109 µM (inactive). Turning to `O=C(NN=Cc1cccc(F)c1)c1cc(-c2ccco2)nc2ccccc12`, the IC50 is > 109 µM (inactive). As for `C=CCN=c1scc(-c2ccco2)n1/N=C/c1ccc(O)c(O)c1O`, the figure is > 109 µM (inactive); as for `Nc1ccc(C(=O)NN=Cc2cc(N=Nc3cccc4ccccc34)ccc2O)cc1`, > 109 µM (inactive); as for `COc1ccc(-n2cccc2/C=C2\C(=N)N3N=C(c4ccco4)SC3=NC2=O)cc1`, > 109 µM (inactive). As for `CCOc1ccc(NC(=O)c2cccc(-n3cccc3)c2)cc1S(=O)(=O)N1CCOCC1`, the figure is > 109 µM (inactive); as for `O=C1COc2ccc(C(=O)COC(=O)/C=C/c3ccc(Br)o3)cc2N1`, > 109 µM (inactive); as for `Cc1ccc(C(=O)O)cc1-c1ccc(/C=C2\SC(=O)N(CC(=O)Nc3ccc4c(c3)OCO4)C2=O)o1`, > 109 µM (inactive).

For `C=CCn1c(SCC(=O)c2ccc(O)c(O)c2)nnc1-c1cccnc1`, the IC50 entry is “inactive”. In the case of `COC(=O)c1ccccc1NCc1cc(=O)oc2cc(O)c(O)cc12`, the IC50 is > 109 µM (inactive). On to `CCc1sc(C(C2C(=O)CC(C)(C)CC2=O)C2C(=O)CC(C)(C)CC2=O)cc1[N+](=O)[O-]`, for which the IC50 is > 109 µM (inactive). As for `Cc1cccc(NC(=O)CNC(=O)c2cccc(-n3cccc3)c2)c1C`, the figure is > 109 µM (inactive); as for `COc1ccc(Cc2nnc(NC(=O)Cc3cccs3)s2)cc1OC`, > 109 µM (inactive). `O=C(NN=Cc1ccc(-c2ccc(S(=O)(=O)Nc3ncccn3)cc2)o1)c1cc2ccccc2cc1O`: the IC50 is > 109 µM (inactive). With `COc1ccc(NC(=O)CN(C)C(=O)c2cc3c(s2)CCC3)cc1`, the IC50 was > 109 µM (inactive).
